Laboratory results: patent publication US6780871B2, “Methods and compositions for treating addiction disorders” (Albany Medical College, priority 2001, dated 2004)

How the values were obtained:
Assay type in all cases: in vivo, rat
[1] = tested on: methamphetamine self-administration; test: intravenous methamphetamine self-administration
[2] = tested on: morphine self-administration; test: intravenous morphine self-administration; conditions: 18-methoxycoronaridine 1 mg/kg i.p., dextromethorphan 5 mg/kg s.c.
Protocol: Dextromethorphan hydrobromide (5 mg/kg; Sigma/RBI, St. Louis, Mo.) was dissolved in saline and injected subcutaneously 20 minutes before testing. Mecamylamine hydrochloride (1 mg/kg; Sigma/RBI, St. Louis, Mo.) was dissolved in physiological saline and injected intraperitoneally 30 minutes before testing. All rats received two injections. For rats that received a single drug, half of them also received the appropriate saline/vehicle injection corresponding to each of the other two drugs.
Naive female Long-Evans derived rats (250 g; Charles River, N.Y.) were maintained on a normal 12 h light cycle (lights on at 7:00 a.m., lights off at 7:00 p.m.). For all experiments the “Principles of Laboratory Animal Care” (NIH publication No. 85-23, revised 1985, which is hereby incorporated by reference) were followed.
The intravenous self-administration procedure described in Glick et al., “18-MC Reduces Methamphetamine and Nicotine Self-administration in Rats,” NeuroReport 11:2013-2015 (2000) (“Glick I”), which is hereby incorporated by reference, was employed. Briefly, responses on either of two levers (mounted 15 cm apart on the front wall of each operant test cage) were recorded on an IBM compatible computer with a Med Associates, Inc. interface. The intravenous self-administration system consisted of polyethylene-silicone cannulas constructed according to the design of Weeks, “Long-term Intravenous Infusion,” pp. 155-168 in Myers (ed.), Methods in Psychobiology, Vol. 2, New York: Academic Press (1972) (“Weeks”), which is hereby incorporated by reference; Instech harnesses and swivels; and Harvard Apparatus infusion pumps (#55-2222). Shaping of the bar-press response was initially accomplished by training rats to bar-press for water. Cannulas were then implanted in the external jugular vein according to procedures described in Weeks, which is hereby incorporated by reference. Self-administration testing began with a 16-h nocturnal session followed by daily 1-h sessions, 5 days (Monday-Friday) a week. A lever-press response produced a 10 μl infusion of drug solution (0.01 mg of morphine sulfate) in about 0.2 s or a 50 μl infusion of drug solution (0.025 mg of methamphetamine sulfate) in about 1 s. Since all rats generally weighed 250±20 g, each response delivered approximately 0.04 mg/kg of morphine or 0.1 mg/kg of methamphetamine. Experiments to assess the effects of experimental treatments were begun when baseline self-administration rates stabilized (≦10% variation from one day to the next across 5 days), usually after 2 weeks of testing.
Each data point represents the mean (±S.E.M.) percent of baseline of 6-8 rats. Significant differences between baseline and treatment are indicated by an asterisk (paired t-test, P<0.01-0.001).
Each data point represents the mean (±S.E.M.) percent of baseline of 5-8 rats. Significant differences between baseline and treatment are indicated by an asterisk (paired t-test), P<0.05-0.01).

[3] = tested on: nicotine self-administration; test: nicotine self-administration; conditions: Example 7, FIGS. 11-12: mecamylamine 0.1 mg/kg i.p., 18-methoxycoronaridine 0.5 mg/kg i.p., dextromethorphan 0.5 mg/kg s.c., bupropion 5 mg/kg i.p.; 5-8 rats
[4] = Example 6, FIG. 9: mecamylamine 1 mg/kg i.p., 18-methoxycoronaridine 5 mg/kg i.p., dextromethorphan 10 mg/kg s.c., bupropion 10 mg/kg i.p., 5-9 rats
[5] = Example 6, FIG. 8: mecamylamine 1 mg/kg i.p., bupropion 5 mg/kg i.p., 5-8 rats

CC(NC(C)(C)C)C(=O)c1cccc(Cl)c1 (stereo not drawn) [bupropion, m-chloro-α-tert-butylaminopropiophenone]
effect on methamphetamine self-administration (percent of baseline) [1, 4]: none of the drugs administered alone, significantly decreased
effect on morphine self-administration (percent of baseline) [2, 5]: none of the drugs administered alone, significantly decreased
effect on nicotine self-administration (percent of baseline) [3]: none of the drugs administered alone, significantly decreased

COc1ccc2c(c1)[C@]13CCCC[C@@H]1[C@H](C2)N(C)CC3 [dextromethorphan]
effect on methamphetamine self-administration (percent of baseline) ([1]; Example 5, FIG. 6: mecamylamine 1 mg/kg i.p., 18-methoxycoronaridine 2 mg/kg i.p., dextromethorphan 5 mg/kg s.c., 6-7 rats): none of the drugs administered alone, significantly decreased
effect on methamphetamine self-administration (percent of baseline) [1, 4]: none of the drugs administered alone, significantly decreased
effect on morphine self-administration (percent of baseline) ([2]; Example 5, FIG. 5: mecamylamine 1 mg/kg i.p., 6-8 rats): none of the drugs administered alone, significantly decreased
effect on morphine self-administration (percent of baseline) [2, 5]: none of the drugs administered alone, significantly decreased
effect on nicotine self-administration (percent of baseline) [3]: none of the drugs administered alone, significantly decreased
